Counter-ions that a name gives are not always drawn.
Legend:
c-Myc/Max/Ebox DNA = biological target: T1, c-Myc/Max/Ebox DNA (Homo sapiens, UniProt P01106); test: c-Myc/Max/Ebox DNA AlphaScreen Assay; type: binding; conditions: free c-Myc 20 nM, his6-Max 5 nM, biotinylated Ebox oligo 10 nM, 2 hour incubation
T1 construct: his6 (cleaved yes)
In short: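 Tag-free c-Myc (20 nM final) and biotinylated Ebox DNA (10 nM final) met compound first, then his6-Max was added; 2 h incubation in pH 8.0 HEPES buffer (150 mM NaCl, BSA, Tween20, glycogen, DTT), DMSO ≤2%. Ternary complex read as AlphaScreen signal between Ni-chelate acceptor and streptavidin donor beads.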

[1] = tested on: human small lung cancer cell line H2171; test: Cell Viability Assay (ATPlite); type: cell-based; conditions: NCI-H2171, 72 h, H2171 cells, incubated for three days, ATPlite readout
Description: Compounds of the invention were assayed for cell viability using the human small lung cancer cell line H2171 as described in the following protocol. Cells were counted and adjusted to 20,000 cells/mL. Using a Biotek EL406, 50 μL of cells in media were distributed into 384 well white plates from Thermo. Immediately after plating, compound in DMSO was distributed to plates. Compounds were added to plates using a 50 nL 384 well pin transfer manifold on a Janus workstation. Stocks were arrayed in 10 point dose response in DMSO stock in 384 well Greiner compound plates. After the addition of compounds, plates were incubated for three days in a 37° C. incubator. Cell viability was read out using ATPlite from Perkin Elmer. Lyophilized powder was resuspended in lysis buffer and diluted 1:2 with deionized water. 25 μL of this solution was added to each well using the Biotek liquid handler. Plates were incubated for 15 minutes at room temperature before signal was read on an Envision Plate Reader. The data from this assay are summarized in Table 3 below (H2171 activity).

T1 sequence (P01106 whole entry): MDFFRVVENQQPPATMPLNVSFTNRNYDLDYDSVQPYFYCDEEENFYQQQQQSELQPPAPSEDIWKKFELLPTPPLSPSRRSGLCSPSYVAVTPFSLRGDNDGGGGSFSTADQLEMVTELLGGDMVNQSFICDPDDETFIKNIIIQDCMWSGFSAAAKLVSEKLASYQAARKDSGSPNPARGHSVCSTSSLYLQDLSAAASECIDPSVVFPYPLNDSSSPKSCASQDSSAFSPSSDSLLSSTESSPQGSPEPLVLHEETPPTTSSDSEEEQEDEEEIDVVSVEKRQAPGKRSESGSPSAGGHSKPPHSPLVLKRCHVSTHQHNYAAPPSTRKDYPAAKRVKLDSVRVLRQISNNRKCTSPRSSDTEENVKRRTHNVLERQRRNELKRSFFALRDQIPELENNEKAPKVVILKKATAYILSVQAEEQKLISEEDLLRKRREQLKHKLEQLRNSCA

IC50 (c-Myc/Max/Ebox DNA) [nM] | IC50 [1] [nM] | Structure (SMILES)
5000 to 25000 | 500 to 5000 | CC[C@H](C)N(CCC(=O)Nc1sc2c(c1-c1nc3cnccc3s1)CCNC2)Cc1ccccc1 [Compound 233, (S)-3-(Benzyl(sec-butyl)amino)-N-(3-(thiazolo[4,5-c]pyridin-2-yl)-4,5,6,7-tetrahydrothieno[2,3-c]pyridin-2-yl)propanamide hydrochloride]
< 500 | < 500 | CCN1[C@H](C)Cc2c(sc(NC(C)=O)c2-c2nc3cnccc3s2)[C@H]1C [Compound 119, N-((5R,7R)-6-ethyl-5,7-dimethyl-3-(thiazolo[4,5-c]pyridin-2-yl)-4,5,6,7-tetrahydrothieno[2,3-c]pyridin-2-yl)acetamide]
5000 to 25000 | < 500 | C[C@H]1Cc2c(sc(NC(=O)CCN[C@@H]3C[C@H]4CNC[C@H]4C3)c2-c2nc3cnccc3s2)CN1 [Compound 247, N—((S)-5-methyl-3-(thiazolo[4,5-c]pyridin-2-yl)-4,5,6,7-tetrahydrothieno[2,3-c]pyridin-2-yl)-3-(((3aR,5s,6aS)-octahydrocyclopenta[c]pyrrol-5-yl)amino)propanamide]
< 500 | < 500 | CC[C@H](C)NCCC(=O)Nc1sc2c(c1-c1nc3cnccc3s1)CCN(CC)C2 [Compound 238, (S)-3-(sec-butylamino)-N-(6-ethyl-3-(thiazolo[4,5-c]pyridin-2-yl)-4,5,6,7-tetrahydrothieno[2,3-c]pyridin-2-yl)propanamide]
< 500 | 500 to 5000 | O=C(CCN1CCCC12CNC2)Nc1sc2c(c1-c1nc3cnccc3s1)CCNC2 [Compound 206]
500 to 5000 | < 500 | CCN1Cc2sc(NC(C)=O)c(-c3nc4cnccc4s3)c2C[C@H]1C [Compound 230, (R)—N-(6-ethyl-5-methyl-3-(thiazolo[4,5-c]pyridin-2-yl)-4,5,6,7-tetrahydrothieno[2,3-c]pyridin-2-yl)acetamide]
< 500 | < 500 | Cc1cc2sc(-c3c(NC(=O)CCNC(C)C)sc4c3CCNC4)nc2c(C)n1 [Compound 225, N-(3-(4,6-Dimethylthiazolo[4,5-c]pyridin-2-yl)-4,5,6,7-tetrahydrothieno[2,3-c]pyridin-2-yl)-3-(isopropylamino)propanamide dihydrochloride]
< 500 | < 500 | O=C(CCNC1CNC1)Nc1sc2c(c1-c1nc3cnccc3s1)CCNC2 [Compound 223, 3-(Azetidin-3-ylamino)-N-(3-(thiazolo[4,5-c]pyridin-2-yl)-4,5,6,7-tetrahydrothieno[2,3-c]pyridin-2-yl)propanamide]
< 500 | 500 to 5000 | Cn1cncc1CNCCC(=O)Nc1sc2c(c1-c1nc3cnccc3s1)CCNC2 [Compound 203]
500 to 5000 | < 500 | CC(=O)Nc1sc2c(c1-c1nc3cccnc3s1)CCNC2 [Compound 101, N-(3-(thiazolo[5,4-b]pyridin-2-yl)-4,5,6,7-tetrahydrothieno[2,3-c]pyridin-2-yl)acetamide]
< 500 | < 500 | CCN1C(C)c2sc(NC(C)=O)c(-c3nc4c(C(F)F)nccc4s3)c2C[C@H]1C (stereo in doubt) [Compound 235, N-((5R,7R)-3-(4-(difluoromethyl)thiazolo[4,5-c]pyridin-2-yl)-6-ethyl-5,7-dimethyl-4,5,6,7-tetrahydrothieno[2,3-c]pyridin-2-yl)acetamide]
< 500 | < 500 | CC(=O)Nc1sc2c(c1-c1nc3c(C(F)F)nccc3s1)CCNC2 [Compound 106, N-[3-[4-(difluoromethyl)thiazolo[4,5-c]pyridin-2-yl]-4,5,6,7-tetrahydrothieno[2,3-c]pyridin-2-yl]acetamide]
< 500 | < 500 | COCCNCCC(=O)Nc1sc2c(c1-c1nc3cnc(C)cc3s1)CCNC2 [Compound 244]
< 500 | < 500 | CC[C@H](C)NCCC(=O)Nc1sc2c(c1-c1nc3c(C(F)F)nccc3s1)CCNC2 [Compound 226]
< 500 | < 500 | O=C(CCN[C@H]1CC[C@H](O)C1)Nc1sc2c(c1-c1nc3cnccc3s1)CCNC2 [Compound 176]
< 500 | < 500 | CN(C)CCC(=O)Nc1sc2c(c1-c1nc3cnccc3s1)CCNC2 [Compound 219, 3-(dimethylamino)-N-(3-(thiazolo[4,5-c]pyridin-2-yl)-4,5,6,7-tetrahydrothieno[2,3-c]pyridin-2-yl)propanamide]

Structure (SMILES) | IC50 (c-Myc/Max/Ebox DNA) [nM] | IC50 [1] [nM]
CC(=O)Nc1sc2c(c1-c1nc3cnccc3s1)C[C@@H](C)N[C@H]2C [Compound 237] | 500 to 5000 | 500 to 5000
CC(=O)Nc1sc2c(c1-c1nc3cnccc3s1)CCC(N)C2 (stereo not drawn) [Compound 113, N-(6-amino-3-(thiazolo[4,5-c]pyridin-2-yl)-4,5,6,7-tetrahydrobenzo[b]thiophen-2-yl)acetamide] | 500 to 5000 | < 500
